# Experiment: recombinant UMI read abundance after kanamycin selection (control-corrected) (log10(CPM+1)); higher = more efficient recombination; extreme values may be limits of the assay; sequences stand for … in AGTGCAGAGAAAATCGGCCAGTTTTCTCTGCCTGCAGTCCGCATGCCGTGGGACCCCTTGGGTTCTAACCTGTTGCCTAGATTTATGCAGCGGACTGCCTTTCTCCCAAAGTGATAAACCGG…AGGTTGGTTTCACT; site = the 11-nt donor
# How it was run: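 Each donor and donor-binding-loop pair was tracked by a 12-nt UMI on a plasmid carrying a promoterless kanamycin gene. With a second plasmid supplying a fixed target and T7-inducible IS621 bridge recombinase, the pool was plated in Escherichia coli on IPTG (0.07 mM) plus kanamycin or unselected. Sequencing of recombinant UMIs across the donor–target junction gave counts expressed as log10(CPM+1) after replicate averaging and control-derived scaling.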
row,Sequence,recombinant UMI read abundance (log10)
1,TTCTGTCCATGGACCGGTTTTCCCGGTAATCCGTATTTGCG (site TTCTGTCCTCG),0.00535
2,TTCTTCCCATGGACCGGTTTTCCCGGTAATCCGTATTTGGC (site TTCTTCCCTGC),0
3,TTCTTGACATGGACCGGTTTTCCCGGTAATCCGTATTTGCT (site TACTTGACTAG),0.126
4,TTCTTGACATGGACCGGTTTTCCCGGTAATCCGTATTTGCT (site TCCTTGACTAG),0.513
5,TTCTTGACATGGACCGGTTTTCCCGGTAATCCGTATTTGCT (site TGCTTGACTAG),0
6,TTCTTGACATGGACCGGTTTTCCCGGTAATCCGTATTTGCT (site TTCTTGACTAG),0.68
7,TTGAACACATGGACCGGTTTTCCCGGTAATCCGTATTTGAC (site TTGAACACTGT),0.849
8,TTGAATACATGGACCGGTTTTCCCGGTAATCCGTATTTGCA (site TAGAATACTTG),1.77
9,TTGAATACATGGACCGGTTTTCCCGGTAATCCGTATTTGCA (site TCGAATACTTG),0
10,TTGAATACATGGACCGGTTTTCCCGGTAATCCGTATTTGCA (site TGGAATACTTG),0
11,TTGAATACATGGACCGGTTTTCCCGGTAATCCGTATTTGCA (site TTGAATACTTG),0.467
12,TTGACAACATGGACCGGTTTTCCCGGTAATCCGTATTTGAC (site TTGACAACTGT),1.62
13,TTGACTCCATGGACCGGTTTTCCCGGTAATCCGTATTTGCT (site TTGACTCCTAG),0.111
14,TTGAGCACATGGACCGGTTTTCCCGGTAATCCGTATTTGGA (site TTGAGCACTTC),0.207
15,TTGCATGCATGGACCGGTTTTCCCGGTAATCCGTATTTGGT (site ATGCATGCTAC),0.00895
16,TTGCATGCATGGACCGGTTTTCCCGGTAATCCGTATTTGGT (site CTGCATGCTAC),0.00328
17,TTGCATGCATGGACCGGTTTTCCCGGTAATCCGTATTTGGT (site GTGCATGCTAC),0.0185
18,TTGCATGCATGGACCGGTTTTCCCGGTAATCCGTATTTGGT (site TTGCATGCTAC),0.317
19,TTGCGGGCATGGACCGGTTTTCCCGGTAATCCGTATTTGTC (site TTGCGGGCTGA),2.15
20,TTGCTACCATGGACCGGTTTTCCCGGTAATCCGTATTTGAA (site TTGCTACCTTT),0.0119
21,TTGCTCACATGGACCGGTTTTCCCGGTAATCCGTATTTGTC (site TTGCTCACTGA),2.25
22,TTGCTGACATGGACCGGTTTTCCCGGTAATCCGTATTTGCG (site TTGCTGACTCG),1.33
23,TTGCTGACATGGACCGGTTTTCCCGGTAATCCGTATTTGTG (site TTGCTGACTCA),0.12
24,TTGGAAACATGGACCGGTTTTCCCGGTAATCCGTATTTGCA (site ATGGAAACTTG),0
25,TTGGAAACATGGACCGGTTTTCCCGGTAATCCGTATTTGCA (site CTGGAAACTTG),1.21

row,Sequence,recombinant UMI read abundance (log10)
1,TTGGAAACATGGACCGGTTTTCCCGGTAATCCGTATTTGCA (site GTGGAAACTTG),0.342
2,TTGGAAACATGGACCGGTTTTCCCGGTAATCCGTATTTGCA (site TTGGAAACTTG),1.86
3,TTGGAGCCATGGACCGGTTTTCCCGGTAATCCGTATTTGAC (site TTGGAGCCTGT),1.31
4,TTGGCCACATGGACCGGTTTTCCCGGTAATCCGTATTTGGA (site TTGGCCACTTC),0.146
5,TTGGCGTCATGGACCGGTTTTCCCGGTAATCCGTATTTGTC (site TTGGCGTCTGA),1.13
6,TTGGTATCATGGACCGGTTTTCCCGGTAATCCGTATTTGAC (site TTGGTATCTGT),2.59
7,TTGTACCCATGGACCGGTTTTCCCGGTAATCCGTATTTGGT (site TTGTACCCTAC),0.111
8,TTGTATACATGGACCGGTTTTCCCGGTAATCCGTATTTGGG (site TTGTATACTCC),0.00305
9,TTGTGATCATGGACCGGTTTTCCCGGTAATCCGTATTTGTG (site TTGTGATCTCA),1.25
10,TTGTGGACATGGACCGGTTTTCCCGGTAATCCGTATTTGTA (site TTGTGGACTTA),1.6
11,TTTAAAGCATGGACCGGTTTTCCCGGTAATCCGTATTTGAC (site TTTAAAGCTGT),0
12,TTTAACCCATGGACCGGTTTTCCCGGTAATCCGTATTTGAA (site TTTAACCCTTT),0.00893
13,TTTAACTCATGGACCGGTTTTCCCGGTAATCCGTATTTGAA (site TTTAACTCTTT),0.34
14,TTTAATACATGGACCGGTTTTCCCGGTAATCCGTATTTGAA (site TTTAATACTTT),0.00702
15,TTTACGTCATGGACCGGTTTTCCCGGTAATCCGTATTTGAT (site TTTACGTCTAT),0.00816
16,TTTAGACCATGGACCGGTTTTCCCGGTAATCCGTATTTGTC (site TTTAGACCTGA),0
17,TTTATCCCATGGACCGGTTTTCCCGGTAATCCGTATTTGAT (site TTTATCCCTAT),0.263
18,TTTCAGGCATGGACCGGTTTTCCCGGTAATCCGTATTTGAG (site TTTCAGGCTCT),0.155
19,TTTCTAGCATGGACCGGTTTTCCCGGTAATCCGTATTTGGT (site TTTCTAGCTAC),0.0163
20,TTTCTCACATGGACCGGTTTTCCCGGTAATCCGTATTTGCC (site TTTCTCACTGG),0.843
21,TTTCTGTCATGGACCGGTTTTCCCGGTAATCCGTATTTGTA (site TTTCTGTCTTA),0
22,TTTGAAGCATGGACCGGTTTTCCCGGTAATCCGTATTTGCG (site TTTGAAGCTCG),1.11
23,TTTGCAGCATGGACCGGTTTTCCCGGTAATCCGTATTTGCT (site TTTGCAGCTAG),0.00605
24,TTTGCAGCATGGACCGGTTTTCCCGGTAATCCGTATTTGCT (site TTTGCCGCTAG),0.0123
25,TTTGCAGCATGGACCGGTTTTCCCGGTAATCCGTATTTGCT (site TTTGCGGCTAG),0.00881

row,Sequence,recombinant UMI read abundance (log10)
1,TTTGCAGCATGGACCGGTTTTCCCGGTAATCCGTATTTGCT (site TTTGCTGCTAG),0.00602
2,TTTGCGCCATGGACCGGTTTTCCCGGTAATCCGTATTTGCT (site TTTGCGACTAG),0.0112
3,TTTGCGCCATGGACCGGTTTTCCCGGTAATCCGTATTTGCT (site TTTGCGCCTAG),0.00475
4,TTTGCGCCATGGACCGGTTTTCCCGGTAATCCGTATTTGCT (site TTTGCGGCTAG),0
5,TTTGCGCCATGGACCGGTTTTCCCGGTAATCCGTATTTGCT (site TTTGCGTCTAG),0.0103
6,TTTGCGGCATGGACCGGTTTTCCCGGTAATCCGTATTTGCA (site TTTGCGGCTAG),0.0111
7,TTTGCGGCATGGACCGGTTTTCCCGGTAATCCGTATTTGCA (site TTTGCGGCTCG),0
8,TTTGCGGCATGGACCGGTTTTCCCGGTAATCCGTATTTGCA (site TTTGCGGCTGG),0
9,TTTGCGGCATGGACCGGTTTTCCCGGTAATCCGTATTTGCA (site TTTGCGGCTTG),0.222
10,TTTGCGTCATGGACCGGTTTTCCCGGTAATCCGTATTTGCT (site TTTGCGACTAG),0
11,TTTGCGTCATGGACCGGTTTTCCCGGTAATCCGTATTTGCT (site TTTGCGCCTAG),0.0115
12,TTTGCGTCATGGACCGGTTTTCCCGGTAATCCGTATTTGCT (site TTTGCGGCTAG),0.018
13,TTTGCGTCATGGACCGGTTTTCCCGGTAATCCGTATTTGCT (site TTTGCGTCTAG),0.251
14,TTTGCTGCATGGACCGGTTTTCCCGGTAATCCGTATTTGTG (site TTAGCTGCTCA),0.0128
15,TTTGCTGCATGGACCGGTTTTCCCGGTAATCCGTATTTGTG (site TTCGCTGCTCA),0.00352
16,TTTGCTGCATGGACCGGTTTTCCCGGTAATCCGTATTTGTG (site TTGGCTGCTCA),0.0177
17,TTTGCTGCATGGACCGGTTTTCCCGGTAATCCGTATTTGTG (site TTTGCTGCTCA),0.0238
18,TTTGGCCCATGGACCGGTTTTCCCGGTAATCCGTATTTGCC (site TTTGGCCCTGG),0
19,TTTGTGACATGGACCGGTTTTCCCGGTAATCCGTATTTGAG (site TTTGTGACTCT),0.0187
20,TTTGTGGCATGGACCGGTTTTCCCGGTAATCCGTATTTGCT (site TTTGAGGCTAG),0
21,TTTGTGGCATGGACCGGTTTTCCCGGTAATCCGTATTTGCT (site TTTGCGGCTAG),0.00488
22,TTTGTGGCATGGACCGGTTTTCCCGGTAATCCGTATTTGCT (site TTTGGGGCTAG),0.022
23,TTTGTGGCATGGACCGGTTTTCCCGGTAATCCGTATTTGCT (site TTTGTGGCTAG),0.113
24,TTTGTTCCATGGACCGGTTTTCCCGGTAATCCGTATTTGGT (site ATTGTTCCTAC),0.0334
25,TTTGTTCCATGGACCGGTTTTCCCGGTAATCCGTATTTGGT (site CTTGTTCCTAC),0.00622

# — the supplement of paper PMC11208160
